Reference: the supplement of paper PMC6045584
± gives the standard deviation of the averaged measurements.

Key:
LENVATINIB = compound: COc1cc2nccc(Oc3ccc(NC(=O)NC4CC4)c(Cl)c3)c2cc1C(N)=O [LENVATINIB]; assay: surviving fraction relative to DMSO-only wells; higher = less growth inhibition; settings: exposure time: 5 days
Procedure, shortened: (§1)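 Surviving fraction was calculated by normalising CellTiter-Glo luminescence to the median of DMSO-only wells. Tumour cell lines in log phase were seeded in 384-well plates at 250–500 cells per well, and 24 hours later were exposed continuously for five days to inhibitors at 0.5, 1, 5, 10, 50, 100, 500 and 1000 nM.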

CABOZANTINIB = compound: COc1cc2nccc(Oc3ccc(NC(=O)C4(C(=O)Nc5ccc(F)cc5)CC4)cc3)c2cc1OC [CABOZANTINIB]; assay: as above; settings: exposure time: 5 days
Procedure, shortened: as §1

Row | Test System | surviving fraction (LENVATINIB; 0.5 nM) | surviving fraction (LENVATINIB; 1 nM) | surviving fraction (LENVATINIB; 5 nM) | surviving fraction (LENVATINIB; 10 nM) | surviving fraction (LENVATINIB; 50 nM) | surviving fraction (LENVATINIB; 100 nM) | surviving fraction (LENVATINIB; 500 nM) | surviving fraction (LENVATINIB; 1000 nM) | surviving fraction (CABOZANTINIB; 0.5 nM) | surviving fraction (CABOZANTINIB; 1 nM) | surviving fraction (CABOZANTINIB; 5 nM) | surviving fraction (CABOZANTINIB; 10 nM) | surviving fraction (CABOZANTINIB; 50 nM) | surviving fraction (CABOZANTINIB; 100 nM) | surviving fraction (CABOZANTINIB; 500 nM) | surviving fraction (CABOZANTINIB; 1000 nM)
1 | SNU475 LIVER | 1.04 ± 0.069 | 1.04 ± 0.042 | 1.02 ± 0.07 | 1.03 ± 0.03 | 0.971 ± 0.045 | 1.03 ± 0.018 | 0.995 ± 0.037 | 1 ± 0.016 | 1 ± 0.033 | 0.972 ± 0.049 | 0.987 ± 0.031 | 0.991 ± 0.053 | 1 ± 0.012 | 0.985 ± 0.048 | 0.923 ± 0.023 | 0.876 ± 0.021
2 | MFM223 BREAST | 1.16 ± 0.069 | 1.08 ± 0.12 | 1.09 ± 0.077 | 1.12 ± 0.024 | 1.06 ± 0.13 | 0.813 ± 0.053 | 0.336 ± 0.02 | 0.29 ± 0.014 | 1.12 ± 0.16 | 1.04 ± 0.048 | 1.12 ± 0.094 | 1.06 ± 0.086 | 1.16 ± 0.17 | 1.22 ± 0.073 | 1.05 ± 0.029 | 0.824 ± 0.098
3 | MDAMB453 BREAST | 1.11 ± 0.035 | 1.11 ± 0.068 | 1.12 ± 0.019 | 1.13 ± 0.043 | 1.12 ± 0.037 | 1.15 ± 0.049 | 0.663 ± 0.016 | 0.52 ± 0.035 | 1.04 ± 0.049 | 1.01 ± 0.034 | 1.09 ± 0.051 | 1.03 ± 0.052 | 1.01 ± 0.092 | 1.06 ± 0.014 | 1.06 ± 0.062 | 1.02 ± 0.041
4 | JIMT1 BREAST | 0.987 ± 0.026 | 1.03 ± 0.0053 | 1.03 ± 0.026 | 1.03 ± 0.052 | 1.06 ± 0.068 | 1.04 ± 0.011 | 1 ± 0.015 | 1.08 ± 0.011 | 1.03 ± 0.049 | 1.04 ± 0.025 | 1.07 ± 0.029 | 1.04 ± 0.049 | 1.13 ± 0.048 | 1.1 ± 0.033 | 1.04 ± 0.043 | 1 ± 0.039
5 | MHM BONE | 1.033 ± 0.0097 | 1.01 ± 0.024 | 1.025 ± 0.0038 | 1.074 ± 0.0044 | 1.05 ± 0.033 | 1.03 ± 0.037 | 0.981 ± 0.019 | 0.937 ± 0.05 | 1.02 ± 0.045 | 1.01 ± 0.037 | 1.02 ± 0.026 | 1.04 ± 0.043 | 1.044 ± 0.0055 | 0.99 ± 0.021 | 0.896 ± 0.022 | 0.915 ± 0.019
6 | HOSMNG BONE | 1.02 ± 0.036 | 1.03 ± 0.023 | 0.964 ± 0.06 | 1.02 ± 0.043 | 1.11 ± 0.033 | 1.07 ± 0.036 | 1.09 ± 0.067 | 1.05 ± 0.091 | 0.961 ± 0.061 | 0.984 ± 0.053 | 0.885 ± 0.036 | 0.913 ± 0.1 | 0.833 ± 0.038 | 0.839 ± 0.018 | 0.314 ± 0.0085 | 0.274 ± 0.011
7 | BT20 BREAST | 1.15 ± 0.07 | 1.2 ± 0.077 | 1.21 ± 0.093 | 1.01 ± 0.15 | 1.05 ± 0.088 | 1.05 ± 0.16 | 1.24 ± 0.16 | 1.08 ± 0.2 | 1.02 ± 0.047 | 1.09 ± 0.097 | 1.05 ± 0.069 | 1.2 ± 0.08 | 1.11 ± 0.012 | 1.19 ± 0.11 | 1.19 ± 0.1 | 1.17 ± 0.18
8 | CAL72 BONE | 1.14 ± 0.086 | 1.12 ± 0.046 | 1.14 ± 0.088 | 1.12 ± 0.062 | 1.16 ± 0.069 | 1.18 ± 0.12 | 1.01 ± 0.13 | 0.613 ± 0.051 | 1.03 ± 0.082 | 1.03 ± 0.093 | 1.07 ± 0.11 | 1.06 ± 0.079 | 1.09 ± 0.095 | 1.14 ± 0.019 | 1.11 ± 0.12 | 1.08 ± 0.11
9 | VP229 BREAST | 1.29 ± 0.23 | 1.14 ± 0.17 | 1.21 ± 0.093 | 0.969 ± 0.044 | 1.36 ± 0.17 | 1.34 ± 0.14 | 1.47 ± 0.13 | 1.42 ± 0.081 | 1.08 ± 0.1 | 1.04 ± 0.14 | 1.04 ± 0.15 | 0.952 ± 0.18 | 1.15 ± 0.2 | 0.998 ± 0.12 | 1.09 ± 0.088 | 0.966 ± 0.061
10 | CADOES1 SOFT TISSUE | 0.975 ± 0.14 | 0.885 ± 0.14 | 0.859 ± 0.14 | 0.885 ± 0.049 | 0.897 ± 0.1 | 0.836 ± 0.11 | 0.839 ± 0.075 | 0.842 ± 0.17 | 0.946 ± 0.15 | 0.895 ± 0.081 | 0.994 ± 0.054 | 0.914 ± 0.15 | 0.858 ± 0.16 | 0.877 ± 0.034 | 0.976 ± 0.056 | 0.878 ± 0.17
11 | ZR751 BREAST | 1.04 ± 0.12 | 0.964 ± 0.15 | 0.926 ± 0.035 | 0.84 ± 0.071 | 1.06 ± 0.092 | 1.1 ± 0.088 | 0.915 ± 0.23 | 1.04 ± 0.022 | 0.87 ± 0.067 | 1.02 ± 0.013 | 1.05 ± 0.083 | 0.995 ± 0.032 | 1.04 ± 0.12 | 1.03 ± 0.086 | 1.07 ± 0.081 | 1.03 ± 0.087
12 | HCC1954 BREAST | 0.904 ± 0.058 | 0.817 ± 0.05 | 1.0393 ± 0.00035 | 0.917 ± 0.04 | 0.993 ± 0.058 | 0.988 ± 0.011 | 1.03 ± 0.11 | 1.11 ± 0.067 | 0.955 ± 0.018 | 1.04 ± 0.02 | 1.03 ± 0.13 | 1.02 ± 0.16 | 1.1 ± 0.073 | 0.921 ± 0.0035 | 1.0215 ± 0.00071 | 1.02 ± 0.055
13 | CAL120 BREAST | 0.968 ± 0.014 | 0.984 ± 0.028 | 1.01 ± 0.023 | 1.01 ± 0.024 | 0.9848 ± 0.0086 | 0.984 ± 0.028 | 0.866 ± 0.024 | 0.753 ± 0.049 | 0.918 ± 0.082 | 0.924 ± 0.054 | 0.941 ± 0.056 | 0.921 ± 0.051 | 0.968 ± 0.052 | 0.923 ± 0.019 | 0.893 ± 0.045 | 0.886 ± 0.026
14 | SG28 HEADNECK | 1.01 ± 0.091 | 1.06 ± 0.058 | 1.04 ± 0.011 | 1.08 ± 0.072 | 1.09 ± 0.097 | 0.966 ± 0.069 | 1.1 ± 0.069 | 1.08 ± 0.097 | 1.07 ± 0.047 | 1.12 ± 0.061 | 0.968 ± 0.099 | 0.959 ± 0.023 | 1 ± 0.06 | 1 ± 0.16 | 1.06 ± 0.058 | 1.19 ± 0.26
15 | SG31 HEADNECK | 1.04 ± 0.17 | 1.17 ± 0.15 | 0.975 ± 0.3 | 0.977 ± 0.066 | 0.985 ± 0.12 | 0.967 ± 0.059 | 1.24 ± 0.09 | 1.12 ± 0.2 | 1.1 ± 0.21 | 1.07 ± 0.2 | 0.981 ± 0.073 | 0.97 ± 0.14 | 1.07 ± 0.24 | 0.97 ± 0.07 | 1.1 ± 0.067 | 1.11 ± 0.082
16 | OSHN BONE | 1.11 ± 0.034 | 1.11 ± 0.044 | 1.11 ± 0.033 | 1.11 ± 0.052 | 1.1 ± 0.02 | 1.1 ± 0.035 | 1.1 ± 0.027 | 1.07 ± 0.011 | 1.033 ± 0.005 | 1.024 ± 0.0035 | 1.03 ± 0.011 | 1.02 ± 0.0032 | 1.006 ± 0.0085 | 0.958 ± 0.02 | 0.928 ± 0.015 | 0.908 ± 0.027
17 | SCC36 HEADNECK | 1.06 ± 0.041 | 1.12 ± 0.063 | 1.12 ± 0.18 | 1.21 ± 0.064 | 1.18 ± 0.044 | 1.08 ± 0.036 | 1.01 ± 0.044 | 1.05 ± 0.025 | 1.03 ± 0.092 | 0.961 ± 0.074 | 1.09 ± 0.066 | 1.02 ± 0.032 | 1.1 ± 0.09 | 1.07 ± 0.073 | 1.07 ± 0.11 | 0.88 ± 0.081
18 | CAL51 BREAST | 0.974 ± 0.023 | 0.975 ± 0.011 | 0.983 ± 0.011 | 0.98 ± 0.031 | 0.973 ± 0.045 | 0.976 ± 0.022 | 0.853 ± 0.051 | 0.755 ± 0.0033 | 1.01 ± 0.08 | 0.953 ± 0.025 | 1.04 ± 0.041 | 0.954 ± 0.062 | 1.06 ± 0.056 | 1.07 ± 0.022 | 0.944 ± 0.091 | 0.89 ± 0.015
19 | HOS BONE | 1.03 ± 0.012 | 1.067 ± 0.0047 | 1.03 ± 0.028 | 1.02 ± 0.025 | 1.06 ± 0.071 | 1.05 ± 0.047 | 1.02 ± 0.017 | 0.946 ± 0.0092 | 1.02 ± 0.011 | 1.001 ± 0.001 | 1.02 ± 0.015 | 0.9757 ± 0.008 | 1.015 ± 0.0092 | 0.984 ± 0.02 | 0.924 ± 0.019 | 0.89 ± 0.014
